Data from the supplement of paper PMC10307832.

Tests used:
Assay in all cases: relative viability (nuclei count vs DMSO), 5 days (fraction); higher = more cells survive
Adavosertib + Vorinostat = compound: C=CCn1c(=O)c2cnc(Nc3ccc(N4CCN(C)CC4)cc3)nc2n1-c1cccc(C(C)(C)O)n1 [Adavosertib] + O=C(CCCCCCC(=O)Nc1ccccc1)NO [Vorinostat] (partner 1 µM)
Outline: (§1)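 Lung cancer cell lines were pin-tool dosed in 1536-well plates on the day after seeding, with either a lone drug or a fixed anchor-drug dose plus five library-drug doses (not always all listed) in √10 steps. Nuclei were counted on 4× images after 5 days. Relative viability is the ratio of treated-well to vehicle-well nuclei counts, with each value a median of duplicate plates.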

Nelarabine + Phenformin = compound: COc1nc(N)nc2c1ncn2[C@@H]1O[C@H](CO)[C@@H](O)[C@@H]1O [Nelarabine] + N=C(N)NC(=N)NCCc1ccccc1 [Phenformin] (partner 250 µM)
Outline: as §1

Nelarabine + AZD7762 = compound: COc1nc(N)nc2c1ncn2[C@@H]1O[C@H](CO)[C@@H](O)[C@@H]1O [Nelarabine] + NC(=O)Nc1cc(-c2cccc(F)c2)sc1C(=O)N[C@H]1CCCNC1 [AZD7762] (partner 0.2 µM)
Outline: as §1

Adavosertib + Bortezomib = compound: C=CCn1c(=O)c2cnc(Nc3ccc(N4CCN(C)CC4)cc3)nc2n1-c1cccc(C(C)(C)O)n1 [Adavosertib] + CC(C)C[C@H](NC(=O)[C@H](Cc1ccccc1)NC(=O)c1cnccn1)B(O)O [Bortezomib] (partner 0.002 µM)
Outline: as §1

NCI-H1395
relative viability (Adavosertib + Vorinostat; first compound 0.01 µM): 0.595 | relative viability (Adavosertib + Vorinostat; first compound 0.03162 µM): 0.759 | relative viability (Adavosertib + Vorinostat; first compound 0.1 µM): 0.619 | relative viability (Adavosertib + Vorinostat; first compound 0.3162 µM): 0.504 | relative viability (Nelarabine + Phenformin; first compound 0.01 µM): 0.487 | relative viability (Nelarabine + Phenformin; first compound 0.03162 µM): 0.401 | relative viability (Nelarabine + Phenformin; first compound 0.1 µM): 0.474 | relative viability (Nelarabine + Phenformin; first compound 0.3162 µM): 0.455 | relative viability (Nelarabine + Phenformin; first compound 1 µM): 0.423 | relative viability (Nelarabine + AZD7762; first compound 0.01 µM): 0.386 | relative viability (Nelarabine + AZD7762; first compound 0.03162 µM): 0.419 | relative viability (Nelarabine + AZD7762; first compound 0.1 µM): 0.388 | relative viability (Nelarabine + AZD7762; first compound 0.3162 µM): 0.406 | relative viability (Nelarabine + AZD7762; first compound 1 µM): 0.39

SK-MES-1
relative viability (Adavosertib + Vorinostat; first compound 0.01 µM): 1.09 | relative viability (Adavosertib + Vorinostat; first compound 0.03162 µM): 1.06 | relative viability (Adavosertib + Vorinostat; first compound 0.1 µM): 0.778 | relative viability (Adavosertib + Vorinostat; first compound 0.3162 µM): 0.348 | relative viability (Nelarabine + Phenformin; first compound 0.01 µM): 0.705 | relative viability (Nelarabine + Phenformin; first compound 0.03162 µM): 0.658 | relative viability (Nelarabine + Phenformin; first compound 0.1 µM): 0.643 | relative viability (Nelarabine + Phenformin; first compound 0.3162 µM): 0.757 | relative viability (Nelarabine + Phenformin; first compound 1 µM): 0.684

NCI-H1792
relative viability (Adavosertib + Bortezomib; first compound 0.01 µM): 0.974 | relative viability (Adavosertib + Bortezomib; first compound 0.03162 µM): 0.918 | relative viability (Adavosertib + Bortezomib; first compound 0.1 µM): 0.972 | relative viability (Adavosertib + Bortezomib; first compound 0.3162 µM): 0.968 | relative viability (Nelarabine + Phenformin; first compound 0.01 µM): 0.211 | relative viability (Nelarabine + Phenformin; first compound 0.03162 µM): 0.4 | relative viability (Nelarabine + Phenformin; first compound 0.1 µM): 0.261 | relative viability (Nelarabine + Phenformin; first compound 0.3162 µM): 0.3 | relative viability (Nelarabine + Phenformin; first compound 1 µM): 0.323 | relative viability (Nelarabine + AZD7762; first compound 0.01 µM): 0.854 | relative viability (Nelarabine + AZD7762; first compound 0.03162 µM): 0.69 | relative viability (Nelarabine + AZD7762; first compound 0.1 µM): 1.1 | relative viability (Nelarabine + AZD7762; first compound 0.3162 µM): 0.68 | relative viability (Nelarabine + AZD7762; first compound 1 µM): 0.6

NCI-H1623
relative viability (Nelarabine + Phenformin; first compound 0.01 µM): 0.44 | relative viability (Nelarabine + Phenformin; first compound 0.03162 µM): 0.508 | relative viability (Nelarabine + Phenformin; first compound 0.1 µM): 0.584 | relative viability (Nelarabine + Phenformin; first compound 0.3162 µM): 0.544 | relative viability (Nelarabine + Phenformin; first compound 1 µM): 0.545

NCI-H1648
relative viability (Adavosertib + Vorinostat; first compound 0.01 µM): 0.498 | relative viability (Adavosertib + Vorinostat; first compound 0.03162 µM): 0.407 | relative viability (Adavosertib + Vorinostat; first compound 0.1 µM): 0.419 | relative viability (Adavosertib + Vorinostat; first compound 0.3162 µM): 0.532 | relative viability (Nelarabine + AZD7762; first compound 0.03162 µM): 0.597 | relative viability (Nelarabine + AZD7762; first compound 0.3162 µM): 0.638 | relative viability (Nelarabine + AZD7762; first compound 1 µM): 0.664

NCI-H2170
relative viability (Adavosertib + Vorinostat; first compound 0.01 µM): 0.866 | relative viability (Adavosertib + Vorinostat; first compound 0.03162 µM): 0.818 | relative viability (Adavosertib + Vorinostat; first compound 0.1 µM): 0.788 | relative viability (Adavosertib + Vorinostat; first compound 0.3162 µM): 0.676 | relative viability (Nelarabine + Phenformin; first compound 0.01 µM): 0.393 | relative viability (Nelarabine + Phenformin; first compound 0.03162 µM): 0.39 | relative viability (Nelarabine + Phenformin; first compound 0.1 µM): 0.388 | relative viability (Nelarabine + Phenformin; first compound 0.3162 µM): 0.421 | relative viability (Nelarabine + Phenformin; first compound 1 µM): 0.383 | relative viability (Nelarabine + AZD7762; first compound 0.01 µM): 1.15 | relative viability (Nelarabine + AZD7762; first compound 0.03162 µM): 0.869 | relative viability (Nelarabine + AZD7762; first compound 0.1 µM): 0.843 | relative viability (Nelarabine + AZD7762; first compound 0.3162 µM): 0.932 | relative viability (Nelarabine + AZD7762; first compound 1 µM): 0.709

NCI-H1793
relative viability (Adavosertib + Vorinostat; first compound 0.01 µM): 0.695 | relative viability (Adavosertib + Vorinostat; first compound 0.03162 µM): 0.739 | relative viability (Adavosertib + Vorinostat; first compound 0.1 µM): 0.581 | relative viability (Adavosertib + Vorinostat; first compound 0.3162 µM): 0.745 | relative viability (Nelarabine + Phenformin; first compound 0.01 µM): 0.45 | relative viability (Nelarabine + Phenformin; first compound 0.03162 µM): 0.366 | relative viability (Nelarabine + Phenformin; first compound 0.1 µM): 0.315 | relative viability (Nelarabine + Phenformin; first compound 0.3162 µM): 0.472 | relative viability (Nelarabine + Phenformin; first compound 1 µM): 0.406 | relative viability (Nelarabine + AZD7762; first compound 0.01 µM): 0.557 | relative viability (Nelarabine + AZD7762; first compound 0.1 µM): 0.319 | relative viability (Nelarabine + AZD7762; first compound 0.3162 µM): 0.748 | relative viability (Nelarabine + AZD7762; first compound 1 µM): 0.436

NCI-H2023
relative viability (Adavosertib + Bortezomib; first compound 0.01 µM): 0.94 | relative viability (Adavosertib + Bortezomib; first compound 0.03162 µM): 0.937 | relative viability (Adavosertib + Bortezomib; first compound 0.1 µM): 0.682 | relative viability (Adavosertib + Bortezomib; first compound 0.3162 µM): 0.437 | relative viability (Adavosertib + Vorinostat; first compound 0.01 µM): 0.671 | relative viability (Adavosertib + Vorinostat; first compound 0.03162 µM): 0.494 | relative viability (Adavosertib + Vorinostat; first compound 0.1 µM): 0.348 | relative viability (Adavosertib + Vorinostat; first compound 0.3162 µM): 0.16 | relative viability (Nelarabine + Phenformin; first compound 0.01 µM): 0.395 | relative viability (Nelarabine + Phenformin; first compound 0.03162 µM): 0.357 | relative viability (Nelarabine + Phenformin; first compound 0.1 µM): 0.4 | relative viability (Nelarabine + Phenformin; first compound 0.3162 µM): 0.371 | relative viability (Nelarabine + Phenformin; first compound 1 µM): 0.371

SW 1573
relative viability (Adavosertib + Bortezomib; first compound 0.01 µM): 1.21 | relative viability (Adavosertib + Bortezomib; first compound 0.03162 µM): 1.07 | relative viability (Adavosertib + Bortezomib; first compound 0.1 µM): 1.16 | relative viability (Adavosertib + Bortezomib; first compound 0.3162 µM): 1.16 | relative viability (Adavosertib + Vorinostat; first compound 0.01 µM): 0.807 | relative viability (Adavosertib + Vorinostat; first compound 0.03162 µM): 0.687 | relative viability (Adavosertib + Vorinostat; first compound 0.1 µM): 0.904 | relative viability (Adavosertib + Vorinostat; first compound 0.3162 µM): 0.758 | relative viability (Nelarabine + Phenformin; first compound 0.01 µM): 0.548 | relative viability (Nelarabine + Phenformin; first compound 0.03162 µM): 0.422 | relative viability (Nelarabine + Phenformin; first compound 0.1 µM): 0.406 | relative viability (Nelarabine + Phenformin; first compound 0.3162 µM): 0.356 | relative viability (Nelarabine + Phenformin; first compound 1 µM): 0.389

NCI-H661
relative viability (Adavosertib + Bortezomib; first compound 0.01 µM): 0.941 | relative viability (Adavosertib + Bortezomib; first compound 0.03162 µM): 0.695 | relative viability (Adavosertib + Bortezomib; first compound 0.1 µM): 0.889 | relative viability (Adavosertib + Bortezomib; first compound 0.3162 µM): 0.738 | relative viability (Adavosertib + Vorinostat; first compound 0.01 µM): 0.847 | relative viability (Adavosertib + Vorinostat; first compound 0.03162 µM): 0.809 | relative viability (Adavosertib + Vorinostat; first compound 0.1 µM): 0.764 | relative viability (Adavosertib + Vorinostat; first compound 0.3162 µM): 0.351 | relative viability (Nelarabine + Phenformin; first compound 0.01 µM): 0.282 | relative viability (Nelarabine + Phenformin; first compound 0.03162 µM): 0.277 | relative viability (Nelarabine + Phenformin; first compound 0.1 µM): 0.276 | relative viability (Nelarabine + Phenformin; first compound 0.3162 µM): 0.274 | relative viability (Nelarabine + Phenformin; first compound 1 µM): 0.258

LK-2
relative viability (Adavosertib + Vorinostat; first compound 0.01 µM): 0.265 | relative viability (Adavosertib + Vorinostat; first compound 0.03162 µM): 0.362 | relative viability (Adavosertib + Vorinostat; first compound 0.1 µM): 0.351 | relative viability (Adavosertib + Vorinostat; first compound 0.3162 µM): 0.306 | relative viability (Nelarabine + Phenformin; first compound 0.01 µM): 0.433 | relative viability (Nelarabine + Phenformin; first compound 0.1 µM): 0.236 | relative viability (Nelarabine + Phenformin; first compound 0.3162 µM): 0.387 | relative viability (Nelarabine + Phenformin; first compound 1 µM): 0.472 | relative viability (Nelarabine + AZD7762; first compound 0.01 µM): 0.408 | relative viability (Nelarabine + AZD7762; first compound 0.1 µM): 0.289 | relative viability (Nelarabine + AZD7762; first compound 0.3162 µM): 0.498 | relative viability (Nelarabine + AZD7762; first compound 1 µM): 0.309

NCI-H1703
relative viability (Adavosertib + Bortezomib; first compound 0.01 µM): 0.461 | relative viability (Adavosertib + Bortezomib; first compound 0.03162 µM): 0.366 | relative viability (Adavosertib + Bortezomib; first compound 0.1 µM): 0.464 | relative viability (Adavosertib + Bortezomib; first compound 0.3162 µM): 0.18 | relative viability (Nelarabine + AZD7762; first compound 0.01 µM): 0.17 | relative viability (Nelarabine + AZD7762; first compound 0.03162 µM): 0.0897 | relative viability (Nelarabine + AZD7762; first compound 0.1 µM): 0.132 | relative viability (Nelarabine + AZD7762; first compound 0.3162 µM): 0.131 | relative viability (Nelarabine + AZD7762; first compound 1 µM): 0.104

NCI-H520
relative viability (Adavosertib + Bortezomib; first compound 0.01 µM): 0.708 | relative viability (Adavosertib + Bortezomib; first compound 0.03162 µM): 0.803 | relative viability (Adavosertib + Bortezomib; first compound 0.1 µM): 0.553 | relative viability (Adavosertib + Bortezomib; first compound 0.3162 µM): 0.535 | relative viability (Adavosertib + Vorinostat; first compound 0.01 µM): 0.756 | relative viability (Adavosertib + Vorinostat; first compound 0.03162 µM): 0.734 | relative viability (Adavosertib + Vorinostat; first compound 0.1 µM): 0.681 | relative viability (Adavosertib + Vorinostat; first compound 0.3162 µM): 0.59 | relative viability (Nelarabine + Phenformin; first compound 0.01 µM): 0.811 | relative viability (Nelarabine + Phenformin; first compound 0.03162 µM): 0.343 | relative viability (Nelarabine + Phenformin; first compound 0.1 µM): 0.638 | relative viability (Nelarabine + Phenformin; first compound 0.3162 µM): 0.806 | relative viability (Nelarabine + Phenformin; first compound 1 µM): 0.513

NCI-H2009
relative viability (Adavosertib + Bortezomib; first compound 0.01 µM): 1.09 | relative viability (Adavosertib + Bortezomib; first compound 0.03162 µM): 1.05 | relative viability (Adavosertib + Bortezomib; first compound 0.1 µM): 1.04 | relative viability (Adavosertib + Bortezomib; first compound 0.3162 µM): 1.02 | relative viability (Adavosertib + Vorinostat; first compound 0.01 µM): 0.829 | relative viability (Adavosertib + Vorinostat; first compound 0.03162 µM): 0.743 | relative viability (Adavosertib + Vorinostat; first compound 0.1 µM): 0.9 | relative viability (Adavosertib + Vorinostat; first compound 0.3162 µM): 0.676 | relative viability (Nelarabine + Phenformin; first compound 0.01 µM): 0.555 | relative viability (Nelarabine + Phenformin; first compound 0.03162 µM): 0.518 | relative viability (Nelarabine + Phenformin; first compound 0.1 µM): 0.479 | relative viability (Nelarabine + Phenformin; first compound 0.3162 µM): 0.532 | relative viability (Nelarabine + Phenformin; first compound 1 µM): 0.47
